Results as given in ChEMBL document CHEMBL3882728, “Amino-substituted quinazoline derivatives as inhibitors of Beta-catenin/TCF-4 pathway and cancer treatment agents” (2009).

Experiment: Cytotoxicity against human SV5A8 cells expressing SV40 binding sites driving firefly/renilla luciferase reporter gene after 24 hrs by luminometer
Format: cell-based
Conditions: SV5A8, 24 h

CNc1nc(NCc2ccc(NC(=O)c3ccc(Cl)cc3F)cc2)c2cc(C)ccc2n1
IC50: > 2.78 µM

Cc1ccc2nc(N(C)C)nc(NCc3ccc(NC(=O)c4ccc(F)cc4)cc3)c2c1
IC50: 5.82 to 11.6 µM

Cc1cc(C)c2nc(N3CCN[C@@H](C)C3)nc(NCc3ccc(NC(=O)c4ccc(F)cc4)cc3)c2c1
IC50: > 5.01 µM

CNc1nc(NCc2ccc(NC(=O)c3cccnc3)cc2)c2cc([N+](=O)[O-])ccc2n1
IC50: > 23.3 µM

Cc1ccc2c(NCc3ccc(NC(=O)C4CCN(Cc5ccccc5)CC4)cc3)nc(N3CCC3)nc2c1
IC50: 9.6 to 17.3 µM

CNc1nc(NCc2ccc(NC(=O)c3ccc(Cl)nc3)cc2)c2cccc(C)c2n1
IC50: 2.89 to 21.6 µM
